Test [1] concerns the target Myosin light chain kinase, smooth muscle (Homo sapiens, UniProt Q15746).
Test [2] addresses Epithelial discoidin domain-containing receptor 1 (Homo sapiens, UniProt Q08345).
For test [3], the target named is T1, Probable ATP-dependent RNA helicase DDX6 (Homo sapiens, UniProt P26196).
T1 sequence (P26196 whole entry): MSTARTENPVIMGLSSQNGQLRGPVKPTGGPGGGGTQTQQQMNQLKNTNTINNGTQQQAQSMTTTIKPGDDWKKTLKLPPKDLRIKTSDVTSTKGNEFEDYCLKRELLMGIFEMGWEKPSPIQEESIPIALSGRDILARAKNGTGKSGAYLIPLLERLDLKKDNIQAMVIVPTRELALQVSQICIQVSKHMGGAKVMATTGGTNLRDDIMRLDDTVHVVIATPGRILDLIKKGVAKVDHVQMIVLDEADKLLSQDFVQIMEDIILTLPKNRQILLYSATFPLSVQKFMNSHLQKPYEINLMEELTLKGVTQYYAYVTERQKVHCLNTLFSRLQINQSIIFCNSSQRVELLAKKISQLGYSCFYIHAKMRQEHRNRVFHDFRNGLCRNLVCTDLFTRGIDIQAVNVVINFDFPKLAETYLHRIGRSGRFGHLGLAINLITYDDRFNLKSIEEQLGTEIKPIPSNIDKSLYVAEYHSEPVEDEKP

Test [4] has as its target T2, STE20-related kinase adapter protein alpha (Homo sapiens, UniProt Q7RTN6).
T2 sequence (Q7RTN6 whole entry): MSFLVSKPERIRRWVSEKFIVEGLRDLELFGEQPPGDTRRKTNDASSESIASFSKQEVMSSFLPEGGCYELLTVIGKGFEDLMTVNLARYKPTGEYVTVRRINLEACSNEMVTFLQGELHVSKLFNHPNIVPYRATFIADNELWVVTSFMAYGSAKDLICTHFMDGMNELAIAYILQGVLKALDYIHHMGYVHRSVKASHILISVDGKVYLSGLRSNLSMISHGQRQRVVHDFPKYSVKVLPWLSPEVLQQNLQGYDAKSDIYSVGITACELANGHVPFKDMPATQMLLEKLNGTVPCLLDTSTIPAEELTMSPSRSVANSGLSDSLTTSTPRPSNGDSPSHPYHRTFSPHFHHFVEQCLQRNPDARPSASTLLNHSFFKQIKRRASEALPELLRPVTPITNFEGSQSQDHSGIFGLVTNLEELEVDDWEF

Test [5] addresses T3, Discoidin domain-containing receptor 2 (Homo sapiens, UniProt Q16832).
T3 sequence (Q16832 whole entry): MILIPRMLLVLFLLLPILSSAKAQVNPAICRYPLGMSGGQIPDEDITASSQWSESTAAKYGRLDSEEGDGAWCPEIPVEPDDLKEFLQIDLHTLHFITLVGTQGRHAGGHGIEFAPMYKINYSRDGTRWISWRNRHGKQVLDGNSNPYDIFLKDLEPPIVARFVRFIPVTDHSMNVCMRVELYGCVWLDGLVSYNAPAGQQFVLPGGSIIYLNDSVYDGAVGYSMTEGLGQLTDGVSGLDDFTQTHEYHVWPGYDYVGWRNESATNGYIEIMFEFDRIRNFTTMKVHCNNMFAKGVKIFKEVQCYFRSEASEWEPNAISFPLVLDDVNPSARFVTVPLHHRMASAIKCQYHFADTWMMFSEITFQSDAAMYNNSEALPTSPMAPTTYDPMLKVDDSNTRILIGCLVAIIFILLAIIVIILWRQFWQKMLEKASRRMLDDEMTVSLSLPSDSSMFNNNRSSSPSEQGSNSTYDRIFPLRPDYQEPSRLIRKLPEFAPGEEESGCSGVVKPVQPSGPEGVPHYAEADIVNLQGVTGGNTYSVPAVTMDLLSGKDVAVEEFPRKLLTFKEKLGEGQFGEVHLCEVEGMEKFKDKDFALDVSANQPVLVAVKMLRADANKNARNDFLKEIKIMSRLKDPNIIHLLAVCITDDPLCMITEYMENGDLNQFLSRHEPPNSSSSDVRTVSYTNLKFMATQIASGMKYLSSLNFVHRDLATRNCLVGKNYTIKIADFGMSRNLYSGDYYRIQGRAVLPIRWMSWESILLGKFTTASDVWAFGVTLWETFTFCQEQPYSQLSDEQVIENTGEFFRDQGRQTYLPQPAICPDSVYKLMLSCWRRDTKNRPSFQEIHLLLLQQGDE

The target in test [6] is T4, Serine/threonine-protein kinase TBK1 (Homo sapiens, UniProt Q9UHD2).
T4 sequence (Q9UHD2 whole entry): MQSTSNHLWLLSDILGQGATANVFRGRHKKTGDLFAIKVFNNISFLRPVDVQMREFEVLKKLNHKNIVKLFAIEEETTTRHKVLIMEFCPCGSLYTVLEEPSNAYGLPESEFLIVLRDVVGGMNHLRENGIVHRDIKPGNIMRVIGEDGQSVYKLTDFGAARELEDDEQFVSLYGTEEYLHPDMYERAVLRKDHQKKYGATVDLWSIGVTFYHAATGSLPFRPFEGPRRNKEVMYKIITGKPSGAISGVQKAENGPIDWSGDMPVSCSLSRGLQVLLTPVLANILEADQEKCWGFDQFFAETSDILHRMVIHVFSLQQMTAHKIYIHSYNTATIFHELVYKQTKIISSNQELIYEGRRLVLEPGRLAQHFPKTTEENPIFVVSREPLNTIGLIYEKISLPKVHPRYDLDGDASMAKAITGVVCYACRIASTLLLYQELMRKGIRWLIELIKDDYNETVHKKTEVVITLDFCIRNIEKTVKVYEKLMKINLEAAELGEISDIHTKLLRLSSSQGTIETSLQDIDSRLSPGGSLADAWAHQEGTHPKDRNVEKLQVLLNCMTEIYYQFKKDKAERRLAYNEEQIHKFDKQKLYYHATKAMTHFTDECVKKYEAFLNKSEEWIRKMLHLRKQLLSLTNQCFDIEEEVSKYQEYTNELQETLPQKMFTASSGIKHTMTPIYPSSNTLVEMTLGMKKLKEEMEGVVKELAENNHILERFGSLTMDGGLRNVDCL

Results on 14 compounds are retold here after ChEMBL document CHEMBL3991601, “The target landscape of clinical kinase drugs” (Science, 2017).

Activity calls are given as the source filed them.
Note: in the data inactive means no Kd found up to 30 µM.

Epithelial discoidin domain-containing receptor 1, sequence (Q08345 whole entry, the tested form may be a part): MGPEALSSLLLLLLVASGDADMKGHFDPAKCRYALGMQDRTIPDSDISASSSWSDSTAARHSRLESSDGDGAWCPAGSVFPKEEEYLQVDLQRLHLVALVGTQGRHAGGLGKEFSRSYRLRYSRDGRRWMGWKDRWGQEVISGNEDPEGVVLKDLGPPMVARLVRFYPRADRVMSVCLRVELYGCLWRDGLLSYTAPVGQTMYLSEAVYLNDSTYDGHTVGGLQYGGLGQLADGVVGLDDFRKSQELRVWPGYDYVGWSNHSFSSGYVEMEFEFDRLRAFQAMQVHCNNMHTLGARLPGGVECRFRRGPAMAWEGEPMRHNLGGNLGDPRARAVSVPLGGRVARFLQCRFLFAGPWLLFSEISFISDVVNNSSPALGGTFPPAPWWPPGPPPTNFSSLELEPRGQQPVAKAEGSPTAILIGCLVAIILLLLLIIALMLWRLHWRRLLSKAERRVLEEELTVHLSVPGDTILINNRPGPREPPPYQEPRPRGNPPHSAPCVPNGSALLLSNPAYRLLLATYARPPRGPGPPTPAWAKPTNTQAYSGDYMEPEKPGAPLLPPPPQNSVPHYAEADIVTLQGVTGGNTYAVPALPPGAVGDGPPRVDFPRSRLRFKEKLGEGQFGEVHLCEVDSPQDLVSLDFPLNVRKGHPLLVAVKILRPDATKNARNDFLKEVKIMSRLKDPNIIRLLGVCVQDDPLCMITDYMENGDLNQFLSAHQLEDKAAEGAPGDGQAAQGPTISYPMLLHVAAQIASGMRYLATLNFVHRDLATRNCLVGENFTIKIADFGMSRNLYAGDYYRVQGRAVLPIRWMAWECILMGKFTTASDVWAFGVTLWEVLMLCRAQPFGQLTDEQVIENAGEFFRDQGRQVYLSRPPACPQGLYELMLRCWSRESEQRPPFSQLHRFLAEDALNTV
Myosin light chain kinase, smooth muscle, sequence (Q15746 whole entry, the tested form may be a part): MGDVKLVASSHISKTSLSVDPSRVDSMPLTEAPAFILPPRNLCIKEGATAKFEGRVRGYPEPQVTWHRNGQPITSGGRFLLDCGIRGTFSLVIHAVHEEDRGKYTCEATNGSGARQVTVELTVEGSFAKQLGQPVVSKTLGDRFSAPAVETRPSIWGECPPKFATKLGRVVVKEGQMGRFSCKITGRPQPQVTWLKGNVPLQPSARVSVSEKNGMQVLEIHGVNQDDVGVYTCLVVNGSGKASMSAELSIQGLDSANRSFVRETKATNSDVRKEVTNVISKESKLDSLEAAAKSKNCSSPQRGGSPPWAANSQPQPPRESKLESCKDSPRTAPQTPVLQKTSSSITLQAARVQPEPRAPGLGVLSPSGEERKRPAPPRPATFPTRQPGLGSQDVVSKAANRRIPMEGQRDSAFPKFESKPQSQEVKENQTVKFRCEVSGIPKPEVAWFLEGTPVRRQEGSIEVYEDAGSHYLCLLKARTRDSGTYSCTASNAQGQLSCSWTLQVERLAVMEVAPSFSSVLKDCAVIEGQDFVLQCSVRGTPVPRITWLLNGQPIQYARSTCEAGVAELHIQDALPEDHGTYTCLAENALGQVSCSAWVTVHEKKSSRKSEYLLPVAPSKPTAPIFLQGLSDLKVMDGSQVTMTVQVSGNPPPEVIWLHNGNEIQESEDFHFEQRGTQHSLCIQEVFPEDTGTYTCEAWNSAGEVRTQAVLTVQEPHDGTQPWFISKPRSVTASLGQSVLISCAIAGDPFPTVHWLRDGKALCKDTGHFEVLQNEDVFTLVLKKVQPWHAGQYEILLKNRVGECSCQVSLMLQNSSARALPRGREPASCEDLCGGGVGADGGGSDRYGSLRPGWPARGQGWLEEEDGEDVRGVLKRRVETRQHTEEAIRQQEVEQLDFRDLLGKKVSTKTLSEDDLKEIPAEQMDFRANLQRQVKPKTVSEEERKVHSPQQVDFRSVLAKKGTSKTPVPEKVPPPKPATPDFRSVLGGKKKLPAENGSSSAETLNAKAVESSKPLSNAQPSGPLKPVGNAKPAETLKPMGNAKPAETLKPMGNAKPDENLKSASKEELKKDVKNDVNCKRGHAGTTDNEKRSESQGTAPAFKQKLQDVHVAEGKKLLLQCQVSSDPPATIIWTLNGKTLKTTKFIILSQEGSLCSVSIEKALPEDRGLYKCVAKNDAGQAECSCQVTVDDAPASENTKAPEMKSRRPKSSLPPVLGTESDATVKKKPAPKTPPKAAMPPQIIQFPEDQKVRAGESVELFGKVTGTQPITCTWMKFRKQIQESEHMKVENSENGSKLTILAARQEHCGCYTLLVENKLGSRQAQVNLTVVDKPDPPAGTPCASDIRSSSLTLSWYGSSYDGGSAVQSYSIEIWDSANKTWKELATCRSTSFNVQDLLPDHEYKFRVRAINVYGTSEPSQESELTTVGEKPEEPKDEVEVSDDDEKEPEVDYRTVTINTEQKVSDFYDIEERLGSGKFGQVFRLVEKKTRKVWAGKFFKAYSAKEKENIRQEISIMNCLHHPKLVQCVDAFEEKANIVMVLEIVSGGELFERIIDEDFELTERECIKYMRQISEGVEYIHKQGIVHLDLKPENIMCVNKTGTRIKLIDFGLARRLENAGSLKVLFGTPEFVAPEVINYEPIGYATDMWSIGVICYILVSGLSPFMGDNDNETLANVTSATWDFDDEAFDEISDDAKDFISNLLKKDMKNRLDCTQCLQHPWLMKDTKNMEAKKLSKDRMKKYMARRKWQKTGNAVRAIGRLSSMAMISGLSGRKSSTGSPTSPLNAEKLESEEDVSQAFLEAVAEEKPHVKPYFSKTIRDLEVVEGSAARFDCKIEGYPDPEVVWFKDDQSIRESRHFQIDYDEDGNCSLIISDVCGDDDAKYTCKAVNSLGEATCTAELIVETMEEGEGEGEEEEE

Turning to `COc1cc(Nc2ncc3c(n2)-c2ccc(Cl)cc2C(c2c(F)cccc2OC)=NC3)ccc1C(=O)O` [ALISERTIB], the Kd in test [1], in test [2], in test [3], in test [4] and in test [5] was > 30 µM (inactive) each time.
In the case of `O=C(Nc1c[nH]nc1-c1nc2cc(CN3CCOCC3)ccc2[nH]1)NC1CC1` [AT-9283], the Kd in test [1], in test [3], in test [4] and in test [5] was > 30 µM (inactive) throughout.
Turning to `CNC(=O)c1ccccc1Sc1ccc2c(/C=C/c3ccccn3)n[nH]c2c1` [AXITINIB], the Kd in test [3] and in test [4] was > 30 µM (inactive) throughout.
`NC(=O)Nc1cc(-c2cccc(F)c2)sc1C(=O)N[C@H]1CCCNC1` [AZD-7762]: the Kd in test [1], in test [2], in test [6], in test [3], in test [4] and in test [5] was > 30 µM (inactive) in each case.
Turning to `COc1cc2ncnc(Oc3cccc(NC(=O)Nc4cc(C(C)(C)C(F)(F)F)on4)c3)c2cc1OC` [CEP-32496], the Kd in test [1] is 2.68 µM (active); in test [2] it was 0.124 µM (active); in test [6], > 30 µM (inactive); in test [3], > 30 µM (inactive); in test [4], > 30 µM (inactive); in test [5] it was 0.183 µM (active).
As to `Cc1cc(Nc2ncc(Cl)c(Nc3ccccc3S(=O)(=O)C(C)C)n2)c(OC(C)C)cc1C1CCNCC1` [CERITINIB], the Kd in test [1], in test [2], in test [6], in test [3], in test [4] and in test [5] was > 30 µM (inactive) throughout.
For the compound `Cn1cc(C2=C(c3cn(C4CCN(Cc5ccccn5)CC4)c4ccccc34)C(=O)NC2=O)c2ccccc21` [ENZASTAURIN], the Kd in test [3] and in test [4] was > 30 µM (inactive) each time.
For the compound `C[C@@H](Oc1cc(-n2cnc3ccc(CN4CCN(C)CC4)cc32)sc1C(N)=O)c1ccccc1C(F)(F)F` [GSK-461364], the Kd in test [3] and in test [4] was > 30 µM (inactive) in each case.
As to `NC(=O)c1c(OCc2c(F)cc(Br)cc2F)nsc1NC(=O)NCCCCN1CCCC1` [OSI-632], the Kd in test [1] was > 30 µM (inactive); in test [2] it was 0.067 µM (active); in test [3] it was > 30 µM (inactive); in test [4], > 30 µM (inactive); in test [5], 0.669 µM (active).
For `CC(=O)NCC(=O)N1[C@@H]2CC[C@H]1c1ccc(Nc3ncc(C(F)(F)F)c(NC4CCC4)n3)cc12` [PF-03814735], the Kd in test [1], in test [2], in test [3], in test [4] and in test [5] was > 30 µM (inactive) each time.
For the compound `CNC(=O)c1cc(Oc2ccc(NC(=O)Nc3cc(C(C)(C)C)nn3-c3ccc4ncccc4c3)c(F)c2)ccn1` [REBASTINIB], the Kd in test [1] is 2.18 µM (active); in test [2], 0.272 µM (active); in test [6], > 30 µM (inactive); in test [3] it was > 30 µM (inactive); in test [4], > 30 µM (inactive).
As for `O=C(NOCCO)c1cc(CN2OCCCC2=O)c(F)c(F)c1Nc1ccc(I)cc1F` [RO-4987655], the Kd in test [3] and in test [4] was > 30 µM (inactive) each time.
Take `N#CC[C@H](C1CCCC1)n1cc(-c2ncnc3[nH]ccc23)cn1` [RUXOLITINIB]: the Kd was > 30 µM (inactive) in test [3] and 3.67 µM in test [4].
Consider `CN1CCN(CCOc2cc(OC3CCOCC3)c3c(Nc4c(Cl)ccc5c4OCO5)ncnc3c2)CC1` [SARACATINIB], for which the Kd in test [1] was > 30 µM (inactive); in test [2], 4.4 µM (active); in test [6], > 30 µM (inactive); in test [3], > 30 µM (inactive); in test [4], > 30 µM (inactive).
